Series [1] relates to HT-29. Briefly: Cellular uptake in human HT-29 spheroids of diameter 300+/-10 um assessed per mg of protein at 0.4 MBq after 4 hrs by gamma counting. The class given is ADME, cell-based. Conditions: ht-29, 4 h.
The subject of series [2] is HT-29. Particulars: human, ht-29, 4 h.
Description: Cellular uptake in human HT-29 monolayers assessed per mg of protein at 0.4 MBq after 4 hrs by gamma counting
For series [3], the system named is HT-29. The series is described as follows: Cellular uptake in human HT-29 spheroids of diameter 600+/-10 um assessed per mg of protein at 0.4 MBq after 4 hrs by gamma counting. Conditions: ht-29, 4 h. The format is ADME, cell-based.

Molecules are shown by their SMILES.

For `O=[N+]([O-])c1nccn1CC(O)C[18F]` (stereo not drawn) [[18F]FLUOROMISONIDAZOLE], the values for the Drug uptake in the series on HT-29 [1], in the series with HT-29 [2] and in the series with HT-29 [3] were 1.17 %ID, 1.03 %ID and 9.86 %ID, respectively.

These data come from ChEMBL document CHEMBL2034850, “Radiosynthesis of a ¹⁸F-labeled 2,3-diarylsubstituted indole via McMurry coupling for functional characterization of cyclooxygenase-2 (COX-2) in vitro and in vivo” (Bioorg Med Chem, 2012).
